Data: paper PMC13266999, “Designing Antibiotics with Inherent Resistance to Efflux as a Strategy to Revive Discovery against Multidrug-Resistant Pathogens” (Journal of Medicinal Chemistry, 2026)
In brackets after ≈: the same amount, converted by molar mass. Like-named read-outs stand apart in the source and are kept apart here.

Tests used:
[1] = system: A. baumannii; assay: A. baumannii efflux chequerboard assay; assay type: cell-based, Acinetobacter baumannii; details: for MIC: Acinetobacter baumannii
Experimental: Checkerboard assays were performed by preparing two separate 2-fold dilution series of compounds in two 96 well plates, one horizontally, one vertically. […] Plates were incubated at 37 C for 20 h and the absorbance (OD600) was read on a CLARIOstar spectrophotometer (BMG Labtech). The fractional inhibitory concentration was calculated as follows: ΣFIC = [(MIC of A in combination)/(MIC of A alone)] + [(MIC of B in combination)/(MIC of B alone)].

[2] = system: Neisseria gonorrhoeae; assay: MIC; assay type: cell-based
[3] = system: S. epidermidis; assay: MIC (microbroth dilution); assay type: cell-based, Staphylococcus epidermidis; details: Staphylococcus epidermidis, read-out: MIC
Experimental: All bacteria were maintained on tryptic soy agar (TSA), except Streptococcus spp., which were maintained on Columbia agar plates containing 5% horse blood. […] Bacteria were grown to stationary phase in liquid culture overnight, with shaking at 200 rpm, before being back diluted to the relevant starting concentration for each assay below. MICs were measured by the microbroth dilution method. […] Absorbance at OD600 was read on a CLARIOstar spectrophotometer (BMG Labtech) and the MIC was defined as the minimum concentration of compound where no visible growth was detected. […] MICs were also performed in the presence of the outer membrane permeator, polymyxin b nonapeptide (PMBN) following the same MIC method but with the following variation. The 2-fold dilution series of compound was prepared as above, then 50 μL of PMBN at a final concentration of 30 μg/mL was added to relevant wells, while 50 μL/well of blank media was added to the remaining wells. Bacteria were then added at 50 μL/well for a starting concentration as above. […] The MICs were read and defined as above. All animal procedures were performed by the contract research organization Pharmacology Discovery Services Taiwan in accordance with the Guide for the Care and Use of Laboratory Animals. The procedures were approved by the Institutional Ethics Committee of Pharmacology Discovery Services Taiwan, Ltd. (approval no. AB127662), in compliance with animal welfare legislation in Taiwan.

In the case of `C[C@H]1COc2c(N3CCN(C)CC3)c(F)cc3c(=O)c(C(=O)O)cn1c23` [Levofloxacin, (S)-9-Fluoro-3-methyl-10-(4-methylpiperazin-1-yl)-7-oxo-2,3-dihydro-7H-[1,4]oxazino[2,3,4-ij]quinoline-6-carboxylic acid, reference compound], the “MIC +50 (0.25x MIC)” value ([1]; A. baumannii ATCC 17978) is reported as 0.007 to 0.06 µg/mL, the “MIC +50 (0.5x MIC)” value ([1]; A. baumannii ATCC 17978) is reported as 0.009 to 0.06 µg/mL and the “MIC +50 (0.25x MIC)” value ([1]; A. baumannii AYE) is reported as 0.014 to 1.88 µg/mL. The “MIC +50 (0.5x MIC)” value ([1]; A. baumannii AYE) was 0.012 to 0.9 µg/mL, the MIC ([1]; ATCC17978, read-out: MIC alone) was 0.125 µg/mL and the MIC ([1]; read-out: MIC alone) was 4 µg/mL.

`C[C@H]1COc2c(N3CC[C@@H](Nc4ncccn4)C3)c(F)cc3c(=O)c(C(=O)O)cn1c23` [Compound 46, (S)-9-Fluoro-3-methyl-7-oxo-10-((R)-3-(pyrimidin-2-ylamino)pyrrolidin-1-yl)-2,3-dihydro-7H-[1,4]oxazino[2,3,4-ij]quinoline-6-carboxylic acid] was tested, and the MIC ([2]; 2007NG046) was 4 µg/mL (≈ 9.4 µM), the MIC ([2]; 2008NG057) was 2 µg/mL (≈ 4.7 µM) and the MIC ([2]; 2008NG097) was 2 µg/mL (≈ 4.7 µM). It also gave an MIC ([2]; 2009NG514) of 2 µg/mL (≈ 4.7 µM), an MIC ([2]; 2010NG122) of 2 µg/mL (≈ 4.7 µM) and an MIC ([2]; ATCC49226, ATCC 49226) of at most 0.03 µg/mL. For the same molecule, the MIC ([2]; ATCC700825, ATCC 700825) was at most 0.03 µg/mL, the MIC ([2]; BAA1833, BAA-1833) was at most 0.03 µg/mL and the MIC ([2]; BAA1838, BAA-1838) was at most 0.03 µg/mL. The MIC ([2]; CCUG57595, CCUG 57595) was at most 0.03 µg/mL, the MIC ([2]; CCUG57596, CCUG 57596) was 0.125 µg/mL (≈ 0.294 µM) and the MIC ([2]; CCUG57597, CCUG 57597) was 2 µg/mL (≈ 4.7 µM). The MIC ([2]; CCUG57598, CCUG 57598) was 2 µg/mL (≈ 4.7 µM), the MIC ([2]; CCUG57599, CCUG 57599) was 0.5 µg/mL (≈ 1.18 µM) and the MIC ([2]; CCUG57600, CCUG 57600) was 1 µg/mL (≈ 2.35 µM). For the same molecule, the MIC ([2]; CCUG57601, CCUG 57601) was at most 0.03 µg/mL, the MIC ([2]; CCUG57602, CCUG 57602) was 0.06 µg/mL (≈ 0.141 µM) and the MIC ([2]; FDA-CDC AR-BANK#0165) was 2 µg/mL (≈ 4.7 µM). For the same molecule, the MIC ([2]; FDA-CDC AR-BANK#0166) was 2 µg/mL (≈ 4.7 µM), the MIC ([2]; FDA-CDC AR-BANK#0167) was at most 0.03 µg/mL and the MIC ([2]; FDA-CDC AR-BANK#0168) was 1 µg/mL (≈ 2.35 µM). The MIC ([2]; FDA-CDC AR-BANK#0169) was 2 µg/mL (≈ 4.7 µM), the MIC ([2]; FDA-CDC AR-BANK#0170) was 2 µg/mL (≈ 4.7 µM) and the MIC ([2]; FDA-CDC AR-BANK#0171) was 1 µg/mL (≈ 2.35 µM). The MIC ([2]; FDA-CDC AR-BANK#0172) was 1 µg/mL (≈ 2.35 µM), the MIC ([2]; FDA-CDC AR-BANK#0173) was 2 µg/mL (≈ 4.7 µM) and the MIC ([2]; FDA-CDC AR-BANK#0174) was 2 µg/mL (≈ 4.7 µM). The MIC ([2]; FDA-CDC AR-BANK#0175) was at most 0.03 µg/mL, the MIC ([2]; FDA-CDC AR-BANK#0176) was 2 µg/mL (≈ 4.7 µM) and the MIC ([2]; FDA-CDC AR-BANK#0177) was at most 0.03 µg/mL. It also gave an MIC ([2]; FDA-CDC AR-BANK#0178) of 2 µg/mL (≈ 4.7 µM), an MIC ([2]; FDA-CDC AR-BANK#0179) of at most 0.03 µg/mL and an MIC ([2]; FDA-CDC AR-BANK#0180) of 2 µg/mL (≈ 4.7 µM). It also gave an MIC ([2]; FDA-CDC AR-BANK#0181) of at most 0.03 µg/mL, an MIC ([2]; FDA-CDC AR-BANK#0182) of 2 µg/mL (≈ 4.7 µM) and an MIC ([2]; FDA-CDC AR-BANK#0183) of 2 µg/mL (≈ 4.7 µM). It also gave an MIC ([2]; FDA-CDC AR-BANK#0184) of 2 µg/mL (≈ 4.7 µM), an MIC ([2]; FDA-CDC AR-BANK#0185) of 2 µg/mL (≈ 4.7 µM) and an MIC ([2]; FDA-CDC AR-BANK#0186) of 1 µg/mL (≈ 2.35 µM). The MIC ([2]; FDA-CDC AR-BANK#0187) was 2 µg/mL (≈ 4.7 µM), the MIC ([2]; FDA-CDC AR-BANK#0188) was 1 µg/mL (≈ 2.35 µM) and the MIC ([2]; FDA-CDC AR-BANK#0189) was 2 µg/mL (≈ 4.7 µM). For the same molecule, the MIC ([2]; FDA-CDC AR-BANK#0190) was 2 µg/mL (≈ 4.7 µM), the MIC ([2]; FDA-CDC AR-BANK#0191) was 2 µg/mL (≈ 4.7 µM) and the MIC ([2]; FDA-CDC AR-BANK#0192) was 2 µg/mL (≈ 4.7 µM). For the same molecule, the MIC ([2]; FDA-CDC AR-BANK#0193) was at most 0.03 µg/mL, the MIC ([2]; FDA-CDC AR-BANK#0194) was at most 0.03 µg/mL and the MIC ([2]; FDA-CDC AR-BANK#0195) was 2 µg/mL (≈ 4.7 µM). It also gave an MIC ([2]; FDA-CDC AR-BANK#0196) of 2 µg/mL (≈ 4.7 µM), an MIC ([2]; FDA-CDC AR-BANK#0197) of 2 µg/mL (≈ 4.7 µM) and an MIC ([2]; FDA-CDC AR-BANK#0198) of 2 µg/mL (≈ 4.7 µM). The MIC ([2]; FDA-CDC AR-BANK#0199) was at most 0.03 µg/mL, the MIC ([2]; FDA-CDC AR-BANK#0200) was 2 µg/mL (≈ 4.7 µM) and the MIC ([2]; FDA-CDC AR-BANK#0201) was 2 µg/mL (≈ 4.7 µM). For the same molecule, the MIC ([2]; FDA-CDC AR-BANK#0202) was at most 0.03 µg/mL, the MIC ([2]; FDA-CDC AR-BANK#0203) was 2 µg/mL (≈ 4.7 µM) and the MIC ([2]; FDA-CDC AR-BANK#0204) was 2 µg/mL (≈ 4.7 µM). The MIC ([2]; FDA-CDC AR-BANK#0205) was 2 µg/mL (≈ 4.7 µM), the MIC ([2]; FDA-CDC AR-BANK#0206) was 2 µg/mL (≈ 4.7 µM) and the MIC ([2]; FDA-CDC AR-BANK#0207) was 2 µg/mL (≈ 4.7 µM). It also gave an MIC ([2]; FDA-CDC AR-BANK#0208) of 2 µg/mL (≈ 4.7 µM), an MIC ([2]; FDA-CDC AR-BANK#0209) of 2 µg/mL (≈ 4.7 µM) and an MIC ([2]; FDA-CDC AR-BANK#0210) of 2 µg/mL (≈ 4.7 µM). It also gave an MIC ([2]; FDA-CDC AR-BANK#0211) of 2 µg/mL (≈ 4.7 µM), an MIC ([2]; FDA-CDC AR-BANK#0212) of 2 µg/mL (≈ 4.7 µM) and an MIC ([2]; FDA-CDC AR-BANK#0213) of 1 µg/mL (≈ 2.35 µM). The MIC ([2]; FDA-CDC AR-BANK#0214) was 2 µg/mL (≈ 4.7 µM), the MIC ([2]; NCTC13477, NCTC 13477) was at most 0.125 µg/mL and the MIC ([2]; NCTC13817, NCTC 13817) was 0.5 µg/mL (≈ 1.18 µM). It also gave an MIC ([2]; NCTC13818, NCTC 13818) of 2 µg/mL (≈ 4.7 µM), an MIC ([2]; NCTC13819, NCTC 13819) of 2 µg/mL (≈ 4.7 µM) and an MIC ([2]; NCTC13820, NCTC 13820) of 2 µg/mL (≈ 4.7 µM). It also gave an MIC ([2]; NCTC13821, NCTC 13821) of 2 µg/mL (≈ 4.7 µM), an MIC ([2]; NCTC13822, NCTC 13822) of 2 µg/mL (≈ 4.7 µM) and an MIC ([2]; TCDC-NG08107) of 2 µg/mL (≈ 4.7 µM). For the same molecule, the MIC90 ([2]; panel of 75 clinical isolates) was 2 µg/mL (≈ 4.7 µM) and the MIC ([2]; several isolates of the panel) was 0.03 to 0.5 µg/mL (≈ 0.0705 to 1.18 µM).

Molecule `Cc1cc(C)nc(N[C@@H]2CCN(c3c(F)cc4c(=O)c(C(=O)O)cn5c4c3OC[C@@H]5C)C2)n1` [Compound 50, (S)-10-((R)-3-((4,6-Dimethylpyrimidin-2-yl)amino)pyrrolidin-1-yl)-9-fluoro-3-methyl-7-oxo-2,3-dihydro-7H-[1,4]oxazino[2,3,4-ij]quinoline-6-carboxylic acid] has an MIC ([3]; ATCC12228, ATCC 12228) of 0.03 µg/mL (≈ 0.0662 µM), an MIC ([3]; ATCC 51625 / MRSE, MRSE (ATCC 51625)) of 0.03 µg/mL (≈ 0.0662 µM) and an MIC ([3]; NRS101) of 0.03 µg/mL (≈ 0.0662 µM). It also gave an MIC ([3]; GIS (NRS7)) of 0.5 µg/mL (≈ 1.1 µM), an MIC ([3]; GIS (NRS8)) of 1 µg/mL (≈ 2.21 µM) and an MIC ([3]; GIS (NRS60)) of 0.06 µg/mL (≈ 0.132 µM).
